Our source for the relative viability values is the supplement of paper PMC10307832.

Assay in all cases: relative viability (nuclei count vs DMSO), 5 days (fraction); higher = more cells survive
Compound in the experiment “Trametinib + Linsitinib”: CC(=O)Nc1cccc(-n2c(=O)n(C3CC3)c(=O)c3c(Nc4ccc(I)cc4F)n(C)c(=O)c(C)c32)c1 [Trametinib] + C[C@]1(O)C[C@@H](c2nc(-c3ccc4ccc(-c5ccccc5)nc4c3)c3c(N)nccn32)C1 [Linsitinib] (partner 1 µM)
The procedure, abridged: (§1)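 Relative viability is defined as nuclei in treated wells over nuclei in vehicle wells. Duplicate plates were run and medians reported. Lung cancer cell lines in 1536-well plates were dosed by pin tool one day after seeding, with one drug or with a fixed anchor-drug dose plus five library-drug doses (not always all listed) in √10 steps, and nuclei were counted after 5 days.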

Compound in the experiment “Trametinib + Olaparib”: CC(=O)Nc1cccc(-n2c(=O)n(C3CC3)c(=O)c3c(Nc4ccc(I)cc4F)n(C)c(=O)c(C)c32)c1 [Trametinib] + O=C(c1cc(Cc2n[nH]c(=O)c3ccccc23)ccc1F)N1CCN(C(=O)C2CC2)CC1 [Olaparib] (partner 8 µM)
The procedure, abridged:
as §1

Compound in experiment [1]: CN1C=C(C2=CC=CC=C21)/C=C\3/C4=C(C=CC=N4)NC3=O + Cc1nc(NC(=O)N2CCC[C@H]2C(N)=O)sc1-c1ccnc(C(C)(C)C(F)(F)F)c1 [Alpelisib] (partner 2 µM)
The procedure, abridged: as §1

Compound in the experiment “Trametinib + OSI-027”: CC(=O)Nc1cccc(-n2c(=O)n(C3CC3)c(=O)c3c(Nc4ccc(I)cc4F)n(C)c(=O)c(C)c32)c1 [Trametinib] + COc1cccc2cc(-c3nc([C@H]4CC[C@H](C(=O)O)CC4)n4ncnc(N)c34)[nH]c12 [OSI-027] (partner 0.5 µM)
The procedure, abridged:
as §1

With NCI-H2228, the relative viability turned out to be 0.582 in the experiment with Trametinib + Linsitinib (first compound 0.0025 µM); 0.764 with Trametinib + Linsitinib (first compound 0.007906 µM); 0.646 in the experiment with Trametinib + Linsitinib (first compound 0.025 µM); 0.472 in the experiment with Trametinib + Linsitinib (first compound 0.07906 µM); 0.396 with Trametinib + Linsitinib (first compound 0.25 µM); 0.691 with Trametinib + Olaparib (first compound 0.0025 µM). Also, the relative viability is 0.541 in the experiment with Trametinib + Olaparib (first compound 0.007906 µM); 0.641 with Trametinib + Olaparib (first compound 0.025 µM); 0.422 with Trametinib + Olaparib (first compound 0.07906 µM); 0.224 with Trametinib + Olaparib (first compound 0.25 µM); 0.718 in experiment [1] (first compound 0.02 µM); 0.645 in experiment [1] (first compound 0.06325 µM). Further, the relative viability in experiment [1] (first compound 0.6325 µM) was found to be 0.919; in experiment [1] (first compound 2 µM) it was 0.674; with Trametinib + OSI-027 (first compound 0.0025 µM), 0.498; with Trametinib + OSI-027 (first compound 0.007906 µM), 0.427; in the experiment with Trametinib + OSI-027 (first compound 0.025 µM) it was 0.222; in the experiment with Trametinib + OSI-027 (first compound 0.07906 µM) it was 0.237. Also, in the experiment with Trametinib + OSI-027 (first compound 0.25 µM), the relative viability is 0.192.
On to NCI-H2347, for which the relative viability with Trametinib + Linsitinib (first compound 0.0025 µM) came out at 0.93; with Trametinib + Linsitinib (first compound 0.007906 µM), 0.653; with Trametinib + Linsitinib (first compound 0.025 µM), 0.404; in the experiment with Trametinib + Linsitinib (first compound 0.07906 µM) it was 0.431; in the experiment with Trametinib + Linsitinib (first compound 0.25 µM) it was 0.445; in the experiment with Trametinib + Olaparib (first compound 0.0025 µM), 0.535. The relative viability was found to be 0.383 with Trametinib + Olaparib (first compound 0.007906 µM); 0.372 with Trametinib + Olaparib (first compound 0.025 µM); 0.321 with Trametinib + Olaparib (first compound 0.07906 µM); 0.316 with Trametinib + Olaparib (first compound 0.25 µM); 1.09 in experiment [1] (first compound 0.02 µM); 0.972 in experiment [1] (first compound 0.06325 µM). Besides, the relative viability in experiment [1] (first compound 0.2 µM) was 1.02; in experiment [1] (first compound 0.6325 µM) it was 0.89; in experiment [1] (first compound 2 µM) it was 1.1; with Trametinib + OSI-027 (first compound 0.0025 µM) it was 0.394; in the experiment with Trametinib + OSI-027 (first compound 0.007906 µM), 0.216; with Trametinib + OSI-027 (first compound 0.025 µM) it was 0.185. Further, the relative viability worked out at 0.226 in the experiment with Trametinib + OSI-027 (first compound 0.07906 µM) and 0.167 in the experiment with Trametinib + OSI-027 (first compound 0.25 µM).
For NCI-H2405, the relative viability with Trametinib + Linsitinib (first compound 0.0025 µM) came out at 0.577; with Trametinib + Linsitinib (first compound 0.007906 µM) it was 0.486; with Trametinib + Linsitinib (first compound 0.025 µM), 0.382; with Trametinib + Linsitinib (first compound 0.07906 µM), 0.362; with Trametinib + Linsitinib (first compound 0.25 µM) it was 0.349; with Trametinib + Olaparib (first compound 0.0025 µM), 0.859. The relative viability with Trametinib + Olaparib (first compound 0.007906 µM) worked out at 0.799; in the experiment with Trametinib + Olaparib (first compound 0.025 µM), 0.83; in the experiment with Trametinib + Olaparib (first compound 0.25 µM), 0.53; in experiment [1] (first compound 0.02 µM), 0.654; in experiment [1] (first compound 0.06325 µM) it was 0.776; in experiment [1] (first compound 0.2 µM), 0.769. The relative viability in experiment [1] (first compound 0.6325 µM) is 0.842; in experiment [1] (first compound 2 µM), 0.7; in the experiment with Trametinib + OSI-027 (first compound 0.0025 µM), 0.651; with Trametinib + OSI-027 (first compound 0.007906 µM), 0.621; with Trametinib + OSI-027 (first compound 0.025 µM), 0.488; in the experiment with Trametinib + OSI-027 (first compound 0.07906 µM), 0.43. In addition, in the experiment with Trametinib + OSI-027 (first compound 0.25 µM), the relative viability is 0.412.
For the cell line NCI-H3122, the relative viability is 0.938 in the experiment with Trametinib + Linsitinib (first compound 0.0025 µM); 0.734 with Trametinib + Linsitinib (first compound 0.007906 µM); 0.429 in the experiment with Trametinib + Linsitinib (first compound 0.025 µM); 0.329 with Trametinib + Linsitinib (first compound 0.07906 µM); 0.295 with Trametinib + Linsitinib (first compound 0.25 µM); 0.558 in the experiment with Trametinib + Olaparib (first compound 0.0025 µM). In addition, the relative viability with Trametinib + Olaparib (first compound 0.007906 µM) came out at 0.532; with Trametinib + Olaparib (first compound 0.025 µM), 0.43; in the experiment with Trametinib + Olaparib (first compound 0.07906 µM), 0.263; in the experiment with Trametinib + Olaparib (first compound 0.25 µM), 0.237; in experiment [1] (first compound 0.02 µM), 0.727; in experiment [1] (first compound 0.06325 µM), 0.764. The relative viability in experiment [1] (first compound 0.2 µM) was found to be 0.722; in experiment [1] (first compound 0.6325 µM) it was 0.802; in experiment [1] (first compound 2 µM) it was 1; with Trametinib + OSI-027 (first compound 0.0025 µM), 0.555; in the experiment with Trametinib + OSI-027 (first compound 0.007906 µM), 0.352; in the experiment with Trametinib + OSI-027 (first compound 0.025 µM), 0.211. Further, the relative viability in the experiment with Trametinib + OSI-027 (first compound 0.07906 µM) turned out to be 0.169; with Trametinib + OSI-027 (first compound 0.25 µM), 0.159.
As to PC-3 [JPC-3], the relative viability came to 0.98 with Trametinib + Linsitinib (first compound 0.0025 µM); 0.854 with Trametinib + Linsitinib (first compound 0.007906 µM); 0.854 with Trametinib + Linsitinib (first compound 0.025 µM); 0.797 with Trametinib + Linsitinib (first compound 0.07906 µM); 0.624 with Trametinib + Linsitinib (first compound 0.25 µM); 1.12 with Trametinib + Olaparib (first compound 0.0025 µM). Further, the relative viability in the experiment with Trametinib + Olaparib (first compound 0.007906 µM) came out at 0.927; with Trametinib + Olaparib (first compound 0.025 µM) it was 0.982; with Trametinib + Olaparib (first compound 0.25 µM), 0.699; in experiment [1] (first compound 0.02 µM) it was 1.02; in experiment [1] (first compound 0.06325 µM) it was 0.99; in experiment [1] (first compound 0.2 µM) it was 1.03. In addition, the relative viability in experiment [1] (first compound 0.6325 µM) was 1.03; in experiment [1] (first compound 2 µM), 0.989; with Trametinib + OSI-027 (first compound 0.0025 µM), 0.803; with Trametinib + OSI-027 (first compound 0.007906 µM), 0.635; with Trametinib + OSI-027 (first compound 0.025 µM), 0.675; with Trametinib + OSI-027 (first compound 0.07906 µM), 0.595. In addition, the relative viability in the experiment with Trametinib + OSI-027 (first compound 0.25 µM) was 0.581.
